For 11 compounds, IC50 results are on record in ChEMBL document CHEMBL5532720, “A Potent Solution for Tumor Growth and Angiogenesis Suppression via an ELR+CXCL-CXCR1/2 Pathway Inhibitor” (ACS Med Chem Lett, 2024).

What all share (assay type): functional, cell-based
For one assay, the system named is 786-0. As to the kind of experiment: Antiproliferative activity against human 786-0 cells incubated for 48 hrs by XTT assay. To be noted: 786-0, 48 h.
The next assay concerns CAL-27. As to the kind of experiment: Antiproliferative activity against human CAL-27 cells incubated for 48 hrs by XTT assay. The conditions noted are these: CAL-27, 48 h. (In general: Formazan colour is commonly taken as a measure of viable cells.)
Assay [1] is described as follows: Antiproliferative activity against human Cisplatin and radiotherapy resistant CAL33RR cells incubated for 48 hrs by XTT assay.
For the next assay, the system named is CAL-33. As to the kind of experiment: Antiproliferative activity against human CAL-33 cells incubated for 48 hrs by XTT assay. To be noted: CAL-33, 48 h.
A short description of assay [2]: Antiproliferative activity against human Cisplatin and radiotherapy resistant CAL27RR cells incubated for 48 hrs by XTT assay.
Assay [3] is described as follows: Antiproliferative activity against human Sunitinib-resistant 786-R cells incubated for 48 hrs by XTT assay.
The next assay has as its system A498. As to the kind of experiment: Antiproliferative activity against human A498 cells incubated for 48 hrs by XTT assay. To be noted: A498, 48 h.
For the next assay, the system named is RCC4. As to the kind of experiment: Antiproliferative activity against human RCC4 cells incubated for 48 hrs by XTT assay. To be noted: RCC4, 48 h.

As a reminder, the IC50 is the concentration that gives 50% inhibition. Low readings indicate inhibition by little substance, high ones a need for much substance. With `O=C(Nc1cccc(Cl)c1)Nc1nc2ccc([N+](=O)[O-])cc2o1`, the 50% inhibitory concentration (IC50) in the assay on 786-0 is 20 µM; with CAL-27 it was greater than 25 µM; in assay [1], 12 µM; in the assay with CAL-33 it was greater than 25 µM; in assay [2], greater than 25 µM; in assay [3], greater than 25 µM. Also, the figures for the IC50 in the assay on A498 and in the assay on RCC4 were 22 µM and 25 µM, respectively.
In the case of `O=C(Nc1cccc(Cl)c1)Nc1nc2ccc(-c3ccccn3)cc2s1`, the half-inhibitory concentration (IC50) in the assay with 786-0 was 15 µM; in the assay with CAL-27, greater than 25 µM; in assay [1], greater than 25 µM; in the assay with CAL-33, greater than 25 µM; in assay [2], greater than 25 µM; in assay [3] it was 8 µM. In addition, the values for the IC50 in the assay with A498 and in the assay on RCC4 were 12 µM and 25 µM, respectively.
Turning to `O=C(Nc1ccccc1)Nc1nc2cc([N+](=O)[O-])ccc2[nH]1`, the IC50 in the assay on 786-0 is 25 µM; with CAL-27, greater than 25 µM; in assay [1], greater than 25 µM; with CAL-33, 20 µM; in assay [2], 15 µM; in assay [3], greater than 25 µM. Moreover, the IC50 in the assay on A498 was 25 µM; with RCC4, greater than 25 µM.
With `O=C(Nc1nc2ccc([N+](=O)[O-])cc2s1)Nc1ccccc1Br`, the IC50 with 786-0 was 15 µM; in the assay with CAL-27 it was greater than 25 µM; in assay [1] it was greater than 25 µM; in the assay with CAL-33 it was 8 µM; in assay [2], 25 µM; in assay [3] it was 14 µM. The half-inhibitory concentration (IC50) in the assay with A498 is 20 µM; in the assay on RCC4, 25 µM.
With `O=C(Nc1nc2ccc([N+](=O)[O-])cc2s1)Nc1ccccc1Cl`, the IC50 with 786-0 was 7 µM; in the assay on CAL-27 it was 8 µM; in assay [1], 7 µM; in the assay with CAL-33, 8 µM; in assay [2], 7 µM; in assay [3] it was 10 µM. Moreover, the IC50 was 6 µM in the assay with A498 and 9 µM in the assay on RCC4.
As to `CC(=O)Nc1ccc2nc(NC(=O)Nc3cccc(Cl)c3)sc2c1`, the concentration for half-maximal inhibition (IC50) in the assay on 786-0 is greater than 25 µM; with CAL-27, greater than 25 µM; in assay [1], greater than 25 µM; with CAL-33, 20 µM; in assay [2] it was 7 µM; in assay [3], 25 µM. In addition, the figures for the IC50 with A498 and in the assay with RCC4 were 25 µM and greater than 25 µM, respectively.
As to `Cc1ccc(-c2ccc3nc(NC(=O)Nc4cccc(Cl)c4)sc3c2)s1`, the IC50 (with 786-0; in the assay on CAL-27; in assay [1]; in the assay with CAL-33; in assay [2]; in assay [3]) was greater than 10 µM throughout. The compound also showed an IC50 in the assay on RCC4 greater than 10 µM.
As for `O=C(Nc1ccccc1)Nc1nc2cc([N+](=O)[O-])ccc2o1`, the IC50 (in the assay with 786-0; with CAL-27; in assay [1]; in the assay with CAL-33; in assay [2]; in assay [3]) was greater than 25 µM each time. The half-inhibitory concentration (IC50) in the assay on A498 and in the assay with RCC4 was greater than 25 µM in each case.
`CCOc1ccc2nc(NC(=O)Nc3cccc(Cl)c3)sc2c1`: the IC50 was greater than 25 µM with 786-0; greater than 25 µM in the assay on CAL-27; greater than 25 µM in assay [1]; 4 µM in the assay with CAL-33; 20 µM in assay [2]; greater than 25 µM in assay [3]. The half-inhibitory concentration (IC50) with A498 and with RCC4 was greater than 25 µM throughout.
As for `O=C(Nc1cccc(Cl)c1)Nc1nc2ccc(-c3ccsc3)cc2s1`, the IC50 (with 786-0; in the assay on CAL-27; in assay [1]; in the assay on CAL-33; in assay [2]; in assay [3]) was greater than 25 µM in each case. The IC50 in the assay on A498 and in the assay on RCC4 was greater than 25 µM in each case.
Consider `O=C(Nc1cccc(Cl)c1)Nc1nc2ccc(-c3ccoc3)cc2s1`, for which the concentration for half-maximal inhibition (IC50) (in the assay with 786-0; with CAL-27; in assay [1]; in the assay on CAL-33; in assay [2]; in assay [3]) was greater than 10 µM in each case. The IC50 in the assay on A498 and with RCC4 was greater than 10 µM each time.
